Results as given in ChEMBL document CHEMBL1275380, “Studies toward the structural optimization of novel thiazolylhydrazone-based potent antitrypanosomal agents” (Bioorg Med Chem, 2010).
Calls of active or inactive are those of the source. No cut-off for these calls is given here.

Assays:
[1] = molecular target: Cruzipain (Trypanosoma cruzi) (UniProt P25779); assay: Inhibition of Trypanosoma cruzi cruzaine in presence of 0.01% Triton X-100
[2] = molecular target: Cruzipain (Trypanosoma cruzi) (UniProt P25779); assay: Inhibition of Trypanosoma cruzi cruzaine at 100 uM pre-incubated for 10 mins
[3] = molecular target: Cruzipain (Trypanosoma cruzi) (UniProt P25779); assay: Inhibition of Trypanosoma cruzi cruzaine in absence of 0.01% Triton X-100
Trypanosoma cruzi [4] = assay: Antitrypanosomal activity against epimastigotes of Trypanosoma cruzi Y assessed as viability after 11 days by trypan blue exclusion assay; assay type: functional, organism-based; details: 264 h
Trypanosoma cruzi [5] = assay: Antitrypanosomal activity against trypomastigotes of Trypanosoma cruzi Y assessed as viability after 24 hrs by trypan blue exclusion assay; assay type: functional, organism-based
[6] = Cytotoxicity against BALB/c mouse Splenocyte assessed as non-cytotoxic concentration after 24 hrs by [3H]-thymidine incorporation assay relative to control; assay type: cell-based; details: splenocytes, read-out: Activity
Cruzipain = Cruzipain (Trypanosoma cruzi, UniProt P25779); assay: Inhibition of Trypanosoma cruzi cruzaine pre-incubated for 10 mins
Trypanosoma cruzi [7] = assay: Antitrypanosomal activity against epimastigotes of Trypanosoma cruzi Y assessed as viability at 40 uM after 11 days by trypan blue exclusion assay; assay type: functional; details: 264 h
Trypanosoma cruzi [8] = assay: Antitrypanosomal activity against epimastigotes of Trypanosoma cruzi Y assessed as viability at 40 uM after 15 hrs by trypan blue exclusion assay; assay type: functional
Trypanosoma cruzi [9] = assay: Antitrypanosomal activity against epimastigotes of Trypanosoma cruzi Y assessed as viability at 40 uM after 7 days by trypan blue exclusion assay; assay type: functional; details: 168 h
Mus musculus = assay: Toxicity in Swiss mouse assessed as mortality at 100 mg/kg, ip after 72 hrs; assay type: organism-based; design: dose 100 mg/kg, route intraperitoneal; details: in vivo
[10] = molecular target: Cruzipain (Trypanosoma cruzi) (UniProt P25779); assay: Inhibition of Trypanosoma cruzi cruzaine without pre-incubation; details: TDE = time-dependent effect

Cruzipain, sequence (P25779 whole entry): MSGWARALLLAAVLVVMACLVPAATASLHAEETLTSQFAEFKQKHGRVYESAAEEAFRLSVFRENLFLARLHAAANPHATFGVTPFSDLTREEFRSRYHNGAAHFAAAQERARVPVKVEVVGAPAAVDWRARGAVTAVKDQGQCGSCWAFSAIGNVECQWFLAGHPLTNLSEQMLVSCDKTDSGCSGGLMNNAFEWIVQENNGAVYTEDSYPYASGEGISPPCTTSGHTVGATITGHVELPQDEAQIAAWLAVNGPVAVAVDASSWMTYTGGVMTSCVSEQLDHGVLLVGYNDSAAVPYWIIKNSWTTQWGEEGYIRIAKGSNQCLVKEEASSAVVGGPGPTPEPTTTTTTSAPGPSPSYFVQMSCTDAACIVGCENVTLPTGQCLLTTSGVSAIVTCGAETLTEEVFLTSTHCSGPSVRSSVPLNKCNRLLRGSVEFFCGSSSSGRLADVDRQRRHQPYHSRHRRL
Cruzipain (Trypanosoma cruzi), sequence (P25779 123-467 limits assumed): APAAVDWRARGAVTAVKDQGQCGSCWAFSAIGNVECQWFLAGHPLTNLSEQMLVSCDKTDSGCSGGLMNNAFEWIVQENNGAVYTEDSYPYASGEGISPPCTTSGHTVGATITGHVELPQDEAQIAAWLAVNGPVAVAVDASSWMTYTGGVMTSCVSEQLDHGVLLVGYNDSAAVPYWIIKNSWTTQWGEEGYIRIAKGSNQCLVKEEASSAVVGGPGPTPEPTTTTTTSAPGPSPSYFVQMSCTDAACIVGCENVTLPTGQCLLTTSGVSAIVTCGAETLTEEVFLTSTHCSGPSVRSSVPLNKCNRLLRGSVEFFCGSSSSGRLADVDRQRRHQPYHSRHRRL

| Compound | inhibition [1] | inhibition [2] | inhibition [3] | IC50 (Trypanosoma cruzi [4]) | IC50 (Trypanosoma cruzi [5]) | MNTC at 24 h [6] | IC50 (Cruzipain) | inhibition at 40 µM (Trypanosoma cruzi [7]) | inhibition at 40 µM (Trypanosoma cruzi [8]) | inhibition at 40 µM (Trypanosoma cruzi [9]) | Activity (Mus musculus) | inhibition [10] |
| --- | --- | --- | --- | --- | --- | --- | --- | --- | --- | --- | --- | --- |
| O=C1CS/C(=N/N=C/C=C/c2ccccc2)N1 | Active | 8% | Active | 2.3 µM | 10.1 µM | < 1 µg/mL | – | – | – | – | – | – |
| CC1S/C(=N/N=C/CCSc2ccc(Cl)cc2)NC1=O (configuration not stated) | Active | 98% | Active | 32.1 µM | – | > 100 µg/mL | 0.2 µM | 10% | – | – | – | – |
| O=C(Cn1ccnc1[N+](=O)[O-])NCc1ccccc1 [BENZNIDAZOLE] | – | – | – | – | – | 25 µg/mL | – | 97% | 43% | 85% | Non-toxic | – |
| CCC1S/C(=N/N=C(\C)CSc2ccc(C)cc2)NC1=O (configuration not stated) | Active | 22% | Active | 45.1 µM | 76.9 µM | > 100 µg/mL | – | 40% | – | – | – | – |
| CC/C(=N\NC(N)=S)c1cccc(Br)c1 | – | – | – | – | – | 1 µg/mL | – | – | – | – | – | – |
| NC(=S)N/N=C/CCc1ccccc1 | Active | – | Active | 3.7 µM | 3.7 µM | < 1 µg/mL | – | – | – | – | – | – |
| CC1S/C(=N/N=C/CCSc2ccccc2)NC1=O (configuration not stated) | Active | 93% | Active | 2.9 µM | 10 µM | > 100 µg/mL | 0.4 µM | 100% | 75% | 100% | Non-toxic | – |
| NC(=S)N/N=C/CSc1ccccc1 | Active | 28% | Active | 13.4 µM | 158 µM | 5 µg/mL | – | 100% | – | – | Non-toxic | – |
| NC(=S)N/N=C/C=C/c1ccccc1 | Active | 35% | Active | 7.3 µM | 7.4 µM | < 1 µg/mL | – | 99% | – | – | – | – |
| CCC1S/C(=N/N=C/CSc2ccc(Br)cc2)NC1=O (configuration not stated) | Active | 38% | Active | 26.9 µM | – | > 100 µg/mL | – | 77% | 0% | 61% | Non-toxic | – |
| Cc1ccc(SC/C=N/N=C2\NC(=S)C(C)S2)cc1 (configuration not stated) | Active | 6% | Active | 6.1 µM | 4.5 µM | < 1 µg/mL | – | – | – | – | Toxic | – |
| C/C(=N\N=C(\N)S)c1ccc(Cl)c(Cl)c1 | – | 96% | – | 8.5 µM | 39.5 µM | 1 µg/mL | 0.1 µM | – | – | – | – | tde |
| CC1S/C(=N/N=C/CSc2ccccc2)NC1=O (configuration not stated) | Active | 5% | Active | 167 µM | 44.2 µM | > 100 µg/mL | – | 4% | – | – | – | – |
| CCC1S/C(=N/N=C(\C)CSc2ccc(Cl)cc2)NC1=O (configuration not stated) | Active | 31% | Active | 62.9 µM | 148 µM | > 100 µg/mL | – | 24% | – | – | – | – |
| CC/C(=N\N=C(\N)S)c1cccc(Br)c1 | – | 92% | – | 15.4 µM | 11.1 µM | – | – | – | – | – | – | tde |
| CCC1S/C(=N/N=C(\C)CSc2ccc(S)cc2)NC1=O (configuration not stated) | Active | 11% | Active | 40.8 µM | 54.6 µM | > 100 µg/mL | – | 41% | – | – | – | – |
| O=C1CS/C(=N/N=C/CSc2ccc(Cl)cc2)N1 | Active | 11% | Active | 43.9 µM | 82.4 µM | > 100 µg/mL | – | 8% | – | – | – | – |
| CC1S/C(=N/N=C/CCSc2ccccc2)NC1=S (configuration not stated) | Active | 92% | Active | 8.1 µM | 2.3 µM | 1 µg/mL | 0.06 µM | – | – | 94% | Toxic | – |
| Cc1ccc(SC/C=N/N=C2\NC(=O)C(C)S2)cc1 (configuration not stated) | Active | 80% | Active | 6.7 µM | 84.8 µM | > 100 µg/mL | 20.4 µM | 97% | 85% | 97% | Non-toxic | – |
| O=C1CS/C(=N/N=C/CSc2ccc(Br)cc2)N1 | Active | 8% | Active | 42.9 µM | – | > 100 µg/mL | – | 31.5% | – | – | – | – |
